Measurements taken from US9809587B2, “Pesticidally active heterocyclic derivatives with sulphur containing substituents” (Syngenta Participations AG, priority 2014, dated 2017).

Columns and labels:
Format in all cases: in vivo
[1] = test system: Diabrotica balteata (Corn Root Worm); assay: Diabrotica balteata (corn root worm), sprayed maize sprouts; conditions: 96 h, application rate of 200 ppm, L2 larvae on maize sprouts, 4 days after infestation
Procedure: Example B2: Diabrotica balteata (Corn Root Worm)
Maize sprouts, placed on an agar layer in 24-well microtiter plates were treated with aqueous test solutions prepared from 10′000 ppm DMSO stock solutions by spraying. After drying, the plates were infested with L2 larvae (6 to 10 per well). The samples were assessed for mortality and growth inhibition in comparison to untreated samples 4 days after infestation.

[2] = test system: Euschistus heros (Neotropical Brown Stink Bug); assay: Euschistus heros (neotropical brown stink bug), sprayed soybean leaf; conditions: 120 h, application rate of 200 ppm, N-2 nymphs on soybean leaf, 5 days after infestation
Procedure: Example B3: Euschistus heros (Neotropical Brown Stink Bug)
Soybean leaf on agar in 24-well microtiter plates were sprayed with aqueous test solutions prepared from 10′000 ppm DMSO stock solutions. After drying the leaf were infested with N-2 nymphs. The samples were assessed for mortality in comparison to untreated samples 5 days after infestation.

[3] = test system: Myzus persicae (Green Peach Aphid); assay: Myzus persicae (green peach aphid), sprayed sunflower leaf discs; conditions: foliar, 144 h, application rate of 200 ppm, mixed ages on sunflower leaf discs, 6 days after infestation
Procedure: Example B4: Myzus persicae (Green Peach Aphid)
Sunflower leaf discs were placed on agar in a 24-well microtiter plate and sprayed with aqueous test solutions prepared from 10′000 ppm DMSO stock solutions. After drying, the leaf discs were infested with an aphid population of mixed ages. The samples were assessed for mortality 6 days after infestation.

[4] = test system: Plutella xylostella (Diamond Back Moth); assay: Plutella xylostella (diamond back moth), treated artificial diet; conditions: 120 h, application rate of 200 ppm, L2 larvae on artificial diet, 5 days after infestation, read-out: effect in at least one of the two categories (mortality or growth inhibition)
Procedure: Example B6: Plutella xylostella (Diamond Back Moth)
24-well microtiter plates with artificial diet were treated with aqueous test solutions prepared from 10′000 ppm DMSO stock solutions by pipetting. After drying, the plates were infested with L2 larvae (10 to 15 per well). The samples were assessed for mortality and growth inhibition in comparison to untreated samples 5 days after infestation.
The following compounds gave an effect of at least 80% in at least one of the two categories (mortality or growth inhibition) at an application rate of 200 ppm: […]

[5] = test system: Spodoptera littoralis (Egyqptian Cotton Leaf Worm); assay: Spodoptera littoralis (Egyptian cotton leaf worm), sprayed cotton leaf discs; conditions: foliar, 72 h, application rate of 200 ppm, L1 larvae on cotton leaf discs, 3 days after infestation
Procedure: Example B7: Spodoptera littoralis (Egyqptian Cotton Leaf Worm)
Cotton leaf discs were placed on agar in 24-well microtiter plates and sprayed with aqueous test solutions prepared from 10′000 ppm DMSO stock solutions. After drying the leaf discs were infested with five L1 larvae. The samples were assessed for mortality, anti-feedant effect, and growth inhibition in comparison to untreated samples 3 days after infestation. Control of Spodoptera littoralis by a test sample is when at least one of mortality, anti-feedant effect, and growth inhibition is higher than the untreated sample.

[6] = test system: Spodoptera littoralis (Egyqptian Cotton Leaf Worm); assay: Spodoptera littoralis (Egyptian cotton leaf worm), compound in agar taken up by lettuce roots; conditions: 144 h, test rate of 12.5 ppm, uptake by lettuce roots from agar, 6 days after infestation, read-out: effect in at least one of the three categories (mortality, anti-feedancy, or growth inhibition)
Excerpt: Example B8: Spodoptera littoralis (Egyqptian Cotton Leaf Worm)
Test compounds were applied by pipette from 10′000 ppm DMSO stock solutions into 24-well plates and mixed with agar. Lettuce seeds were placed on the agar and the multi well plate was closed by another plate which contains also agar. After 7 days the roots have absorbed the compound and the lettuce has grown into the lid plate. The lettuce leafs were now cut off into the lid plate. Spodoptera eggs were pipetted through a plastic stencil on a humid gel blotting paper and the plate closed with it. The samples were assessed for mortality, anti-feedant effect and growth inhibition in comparison to untreated samples 6 days after infestation.
The following compounds gave an effect of at least 80% in at least one of the three categories (mortality, anti-feedancy, or growth inhibition) at a test rate of 12.5 ppm: […]

CCS(=O)(=O)c1cc(-c2nc(C)cc(C3CC3)n2)cnc1-c1nc2cc(C(F)(F)F)ncc2n1C [Compound P23, 2-[5-(4-cyclopropyl-6-methyl-pyrimidin-2-yl)-3-ethylsulfonyl-2-pyridyl]-3-methyl-6-(trifluoromethyl)imidazo[4,5-c]pyridine]
≥ 80%: mortality at 200 ppm [1] | mortality at 200 ppm [2] | mortality at 200 ppm [3] | percent effect (mortality or growth inhibition) at 200 ppm [4] | percent control (mortality, anti-feedant effect or growth inhibition) at 200 ppm [5]

CCS(=O)(=O)c1cc(-c2cnc3nc(C(F)(F)F)ccn23)cnc1-c1nc2cc(C(F)(F)F)ncc2n1C [Compound P36]
≥ 80%: mortality at 200 ppm [1] | mortality at 200 ppm [2] | mortality at 200 ppm [3] | percent effect (mortality or growth inhibition) at 200 ppm [4] | percent control (mortality, anti-feedant effect or growth inhibition) at 200 ppm [5]

CCS(=O)(=O)c1cc(-c2ncccc2OC(F)F)cnc1-c1nc2cc(C(F)(F)F)ncc2n1C [Compound P43]
≥ 80%: mortality at 200 ppm [1] | mortality at 200 ppm [2] | mortality at 200 ppm [3] | percent effect (mortality or growth inhibition) at 200 ppm [4] | percent control (mortality, anti-feedant effect or growth inhibition) at 200 ppm [5]

CCS(=O)(=O)c1cc(-c2ccc(C)cn2)cnc1-c1nc2cc(C(F)(F)F)ncc2n1C [Compound P55]
≥ 80%: mortality at 200 ppm [1] | mortality at 200 ppm [2] | mortality at 200 ppm [3] | percent effect (mortality or growth inhibition) at 200 ppm [4] | percent control (mortality, anti-feedant effect or growth inhibition) at 200 ppm [5]

CCS(=O)(=O)c1cc(-c2cc(C)ccn2)cnc1-c1nc2cc(C(F)(F)F)ncc2n1C [Compound P57]
≥ 80%: mortality at 200 ppm [2] | mortality at 200 ppm [3] | percent effect (mortality or growth inhibition) at 200 ppm [4] | percent control (mortality, anti-feedant effect or growth inhibition) at 200 ppm [5] | percent control (mortality, anti-feedancy or growth inhibition) at 12.5 ppm [6]

CCS(=O)(=O)c1cc(-c2ccc(C#N)nc2)cnc1-c1nc2cc(C(F)(F)F)ncc2n1C [Compound P65]
≥ 80%: mortality at 200 ppm [1] | mortality at 200 ppm [2] | mortality at 200 ppm [3] | percent effect (mortality or growth inhibition) at 200 ppm [4] | percent control (mortality, anti-feedant effect or growth inhibition) at 200 ppm [5]

CCS(=O)(=O)c1cc(-c2ccsc2)cnc1-c1nc2cc(C(F)(F)F)ncc2n1C [Compound P82]
≥ 80%: mortality at 200 ppm [1] | mortality at 200 ppm [3] | percent effect (mortality or growth inhibition) at 200 ppm [4] | percent control (mortality, anti-feedant effect or growth inhibition) at 200 ppm [5] | percent control (mortality, anti-feedancy or growth inhibition) at 12.5 ppm [6]

CCS(=O)(=O)c1cc(-c2cccc(OC)n2)cnc1-c1nc2cc(C(F)(F)F)ncc2n1C [Compound P95]
≥ 80%: mortality at 200 ppm [1] | mortality at 200 ppm [2] | mortality at 200 ppm [3] | percent effect (mortality or growth inhibition) at 200 ppm [4] | percent control (mortality, anti-feedant effect or growth inhibition) at 200 ppm [5]

CCS(=O)(=O)c1cc(-n2ccc(C#N)n2)cnc1-c1nc2cc(C(F)(F)F)ncc2n1C [Compound P98]
≥ 80%: mortality at 200 ppm [1] | mortality at 200 ppm [2] | mortality at 200 ppm [3] | percent effect (mortality or growth inhibition) at 200 ppm [4] | percent control (mortality, anti-feedant effect or growth inhibition) at 200 ppm [5]

CCS(=O)(=O)c1cc(-c2ccnc(Cl)n2)cnc1-c1nc2cc(C(F)(F)F)ncc2n1C [Compound P105]
≥ 80%: mortality at 200 ppm [1] | mortality at 200 ppm [3] | percent effect (mortality or growth inhibition) at 200 ppm [4] | percent control (mortality, anti-feedant effect or growth inhibition) at 200 ppm [5] | percent control (mortality, anti-feedancy or growth inhibition) at 12.5 ppm [6]
